In patent publication US10065990B2, “Cyclic peptide compound, and preparation method, pharmaceutical composition and use thereof” (HANGZHOU GUANYU BIO-MEDICAL CO., LTD, priority 2013, dated 2018):
Where two headings read alike, the source gives them in different places.

What was measured:
[1] = molecular target: T1, HDAC7 (Homo sapiens, UniProt Q8WUI4); assay: HDAC biochemical activity measurement (fluorescent substrate deacetylation);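 note: fluorogenic deacetylation assay using acetyl-lysine substrate at 20 µM, enzyme and compound incubated 30 min at 37 °C, then developer added, fluorescence read at 360/460 nm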; details: HDAC7; 37° C. 30 minutes
T1 sequence (Q8WUI4 1-952): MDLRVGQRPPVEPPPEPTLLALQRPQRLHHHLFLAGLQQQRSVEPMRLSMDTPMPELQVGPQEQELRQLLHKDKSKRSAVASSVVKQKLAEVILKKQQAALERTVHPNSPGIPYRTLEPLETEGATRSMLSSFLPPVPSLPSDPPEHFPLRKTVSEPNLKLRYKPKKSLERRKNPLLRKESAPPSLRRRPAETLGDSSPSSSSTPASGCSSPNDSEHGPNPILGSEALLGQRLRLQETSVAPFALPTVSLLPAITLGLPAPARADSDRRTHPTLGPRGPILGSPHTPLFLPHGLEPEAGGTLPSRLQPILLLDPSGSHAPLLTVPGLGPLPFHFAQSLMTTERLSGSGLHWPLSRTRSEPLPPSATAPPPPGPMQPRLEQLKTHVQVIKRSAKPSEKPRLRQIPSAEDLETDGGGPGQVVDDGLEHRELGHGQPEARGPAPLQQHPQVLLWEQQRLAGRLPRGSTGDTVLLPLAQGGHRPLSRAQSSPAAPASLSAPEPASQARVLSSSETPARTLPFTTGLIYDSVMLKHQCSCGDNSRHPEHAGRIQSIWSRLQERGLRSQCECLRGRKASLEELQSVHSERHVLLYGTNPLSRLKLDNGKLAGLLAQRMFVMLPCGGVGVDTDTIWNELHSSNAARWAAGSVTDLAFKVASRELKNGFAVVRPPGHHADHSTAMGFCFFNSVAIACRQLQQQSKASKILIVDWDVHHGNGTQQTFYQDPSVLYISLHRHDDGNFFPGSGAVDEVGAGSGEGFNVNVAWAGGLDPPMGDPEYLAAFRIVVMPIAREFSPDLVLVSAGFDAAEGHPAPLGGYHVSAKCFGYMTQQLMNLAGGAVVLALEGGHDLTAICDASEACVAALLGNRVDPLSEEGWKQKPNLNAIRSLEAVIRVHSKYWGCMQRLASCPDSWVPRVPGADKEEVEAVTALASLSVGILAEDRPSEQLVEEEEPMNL

[2] = tested on: A549 (human lung cancer cells); assay: MTT cancer cell growth inhibition; assay type: cell-based; details: Homo sapiens, A549, 72 h, MTT, 72 hours incubation, read-out: GI50 A54
Description: (§1) MTT assay principle is yellow MTT can penetrate membrane into the cell, succinic dehydrogenase of the mitochondria in living cells can make exogenous MTT reduction of insoluble in water of blue-violet acicular formazan for crystallization and deposition in the cell, crystallization can be dissolved dimethyl sulfoxide (DMSO) solution, detected its absorbance at 490 nm/570 nm wavelength by enzyme-linked immunosorbent assay, which can reflect the number of cells.
(§2) Using DMEM+10% FBS culture medium or using 1640+10% FBS culture, respectively.
(§3) a) Cells were seeded in 96-well plates with the inoculation of 1500/well, 190 μl/hole, 37° C., 5% of CO2 incubator overnight;
(§4) b) The next day each well was added 10 μl of different drugs. The final concentration of drug was 10^−5˜10^−10M, three parallel holes; 37° C., 5% CO2 culture incubator for 72 hours incubation;
(§5) c) Per well was added 20 μl 5 mg/ml of MTT, 37° C., 5% CO2 culture incubator for 4 hours incubation;
(§6) d) The supernatant was discarded. Each well was added 100 μl of DMSO and oscillation;
(§7) e) 570 nm readings. Calculate cell viability. GI50 calculation based on the results.

[3] = tested on: K562 (human leukemia cells); assay: MTT cancer cell growth inhibition; assay type: cell-based; details: Homo sapiens, K562, 72 h, MTT, 72 hours incubation, K562 cells; read-out: GI50 K562
Description: as §1, §2, §3, §4, §5, §6, §7

[4] = tested on: U937 (human leukemia cells); assay: MTT cancer cell growth inhibition; assay type: cell-based; details: Homo sapiens, U-937, 72 h, MTT, 72 hours incubation, read-out: GI50 U93
Description: as §1, §2, §3, §4, §5, §6, §7

[5] = tested on: DU145 (human prostate cancer cells); assay: MTT cancer cell growth inhibition; assay type: cell-based; details: Homo sapiens, DU-145, 72 h, MTT, 72 hours incubation, read-out: GI50 Du1
Description: as §1, §2, §3, §4, §5, §6, §7

[6] = tested on: MCF-7 (human breast cancer cells); assay: MTT cancer cell growth inhibition; assay type: cell-based; details: Homo sapiens, MCF7, 72 h, 72 hours incubation, read-out: GI50 MCF
Description: as §1, §2, §3, §4, §5, §6, §7

[7] = tested on: MDA-MB-231 (breast cancer cells); assay: MTT cancer cell growth inhibition; assay type: cell-based; details: Homo sapiens, MDA-MB-231, 72 h, read-out: GI50 MDA-MB-231, MTT, 72 hours incubation, MDA-MB-231 cells
Description: as §1, §2, §3, §4, §5, §6, §7

[8] = tested on: N-87 (human gastric cancer cells); assay: MTT cancer cell growth inhibition; assay type: cell-based; details: Homo sapiens, 72 h, MTT, 72 hours incubation, N-87 cells; read-out: GI50 N-87
Description: as §1, §2, §3, §4, §5, §6, §7

[9] = tested on: Huh-7 (human hepatoma cells); assay: MTT cancer cell growth inhibition; assay type: cell-based; details: Homo sapiens, Huh-7, 72 h, MTT, 72 hours incubation, Huh-7 cells; read-out: GI50 Huh-7
Description: as §1, §2, §3, §4, §5, §6, §7

[10] = tested on: PANC-1 (Pac-1, human pancreatic cancer cells); assay: MTT cancer cell growth inhibition; assay type: cell-based; details: Homo sapiens, PANC-1, 72 h, MTT, 72 hours incubation, read-out: GI50 PAN
Description: as §1, §2, §3, §4, §5, §6, §7

[11] = tested on: lncap (prostate cancer cells); assay: MTT cancer cell growth inhibition; assay type: cell-based; details: Homo sapiens, LNCaP, 72 h, MTT, 72 hours incubation, read-out: GI50 lnca
Description: as §1, §2, §3, §4, §5, §6, §7

[12] = tested on: H1975 (non-small cell lung adenocarcinoma); assay: MTT cancer cell growth inhibition; assay type: cell-based; details: Homo sapiens, NCI-H1975, 72 h, MTT, 72 hours incubation, H1975 cells; read-out: GI50 H1975
Description: as §1, §2, §3, §4, §5, §6, §7

[13] = tested on: HCC827 (human non-small cell lung cancer cells); assay: MTT cancer cell growth inhibition; assay type: cell-based; details: Homo sapiens, HCC827, 72 h, MTT, 72 hours incubation, HCC827 cells; read-out: GI50 HCC827
Description: as §1, §2, §3, §4, §5, §6, §7

[14] = tested on: KBM5-T315I (human chronic myelogenous leukemia); assay: MTT cancer cell growth inhibition; assay type: cell-based; details: Homo sapiens, 72 h, MTT, 72 hours incubation, KBM5-T315I cells; read-out: GI50 KBM5-T315I
Description: as §1, §2, §3, §4, §5, §6, §7

[15] = tested on: MOLT-4 (human acute lymphoblastic leukemia cells); assay: MTT cancer cell growth inhibition; assay type: cell-based; details: Homo sapiens, MOLT-4, 72 h, MTT, 72 hours incubation, read-out: GI50 Mol
Description: as §1, §2, §3, §4, §5, §6, §7

[16] = tested on: Hela (human cervical cancer cells); assay: MTT cancer cell growth inhibition; assay type: cell-based; details: Homo sapiens, HeLa, 72 h, MTT, 72 hours incubation, read-out: GI50 Hela
Description: as §1, §2, §3, §4, §5, §6, §7

[17] = tested on: HT1080 (human fibrosarcoma cells); assay: MTT cancer cell growth inhibition; assay type: cell-based; details: Homo sapiens, HT-1080, 72 h, MTT, 72 hours incubation, read-out: GI50 HT1
Description: as §1, §2, §3, §4, §5, §6, §7

[18] = tested on: Bel-7402 (human hepatoma cells); assay: MTT cancer cell growth inhibition; assay type: cell-based; details: Homo sapiens, Bel-7402, 72 h, MTT, 72 hours incubation, Bel-7402 cells; read-out: GI50 Bel-7402
Description: as §1, §2, §3, §4, §5, §6, §7

[19] = tested on: SGC-7901 (human gastric cancer cells); assay: MTT cancer cell growth inhibition; assay type: cell-based; details: Homo sapiens, SGC-7901, 72 h, MTT, 72 hours incubation, SGC-7901 cells; read-out: GI50 SGC-7901
Description: as §1, §2, §3, §4, §5, §6, §7

[20] = tested on: BGC-823 (human gastric cancer cells); assay: MTT cancer cell growth inhibition; assay type: cell-based; details: Homo sapiens, BGC-823, 72 h, MTT, 72 hours incubation, read-out: GI50 BG
Description: as §1, §2, §3, §4, §5, §6, §7

[21] = tested on: KBM-5 (human chronic myelogenous leukemia); assay: MTT cancer cell growth inhibition; assay type: cell-based; details: Homo sapiens, KBM5, 72 h, MTT, 72 hours incubation, KBM-5 cells; read-out: GI50 KBM-5
Description: as §1, §2, §3, §4, §5, §6, §7

IC50 HDAC7 [1] | GI50 ([2]; A549 cells) [nM] | GI50 [3] [nM] | GI50 ([4]; U937 cells) [nM] | GI50 ([5]; DU145 cells) [nM] | GI50 ([6]; MCF-7 cells) [nM] | GI50 [7] [nM] | GI50 [8] [nM] | GI50 [9] [nM] | GI50 ([10]; PANC-1 cells) [nM] | GI50 ([11]; lncap cells) [nM] | GI50 [12] [nM] | GI50 [13] [nM] | GI50 [14] [nM] | GI50 ([15]; MOLT-4 cells) [nM] | GI50 ([16]; Hela cells) [nM] | GI50 ([17]; HT1080 cells) [nM] | GI50 [18] [nM] | GI50 [19] [nM] | GI50 [21] [nM] | Structure (SMILES) | further results
no activity | 30 | 32 | 40 | 30 | 30 | 38 | 45 | 21 | 80 | 50 | 41 | 41 | 43 | 50 | 40 | 110 | 36 | 23 | 45 | C/C=C1\NC(=O)c2nc(ccc2SC)CNC(=O)C[C@@H](/C=C/CCSC(=O)CCCCCCC)OC(=O)[C@H](Cc2ccccc2)NC1=O [Compound 189] | GI50 ([20]; BGC-823 cells): 10 nM
no activity | 60 | 37 | 80 | 50 | 80 | 25 | 36 | 48 | 10 | 30 | 25 | 77 | 57 | 50 | 40 | 30 | 58 | 11 | 38 | C/C=C1\NC(=O)c2ccc(SC)c(n2)CNC(=O)C[C@@H](/C=C/CCS)OC(=O)[C@H](CC)NC1=O [Compound 231] | GI50 ([20]; BGC-823 cells): 10 nM
no activity | – | 22 | – | – | – | 43 | 15 | 43 | – | – | 29 | 62 | 29 | – | – | – | 62 | 57 | 42 | C=C1NC(=O)c2ccc(F)c(n2)CNC(=O)C[C@@H](/C=C/CCSC(C)=O)OC(=O)[C@H](C)NC1=O [Compound 92] | GI50 [2]: 50 nM; GI50 [4]: 20 nM; GI50 [5]: 20 nM; GI50 [6]: 20 nM; GI50 [10]: 60 nM; GI50 [11]: 40 nM; GI50 [15]: 40 nM; GI50 [16]: 40 nM; GI50 [17]: 60 nM; GI50 [20]: 10 nM
no activity | 50 | 23 | 20 | 60 | 70 | 18 | 36 | 37 | 40 | 80 | 35 | 41 | 33 | 80 | 70 | 60 | 38 | 28 | 15 | C/C=C1\NC(=O)c2cc(SC)cc(n2)CNC(=O)C[C@@H](/C=C/CCSC(=O)CCCCCCC)OC(=O)[C@H](C)NC1=O [Compound 181] | GI50 ([20]; BGC-823 cells): 30 nM
no activity | 30 | 84 | 70 | 50 | 60 | 34 | 75 | 49 | 80 | 60 | 33 | 39 | 39 | 80 | 90 | 70 | 82 | 63 | 42 | C/C=C1\NC(=O)c2ncc(SC)c(n2)CNC(=O)C[C@@H](/C=C/CCSC(C)=O)OC(=O)[C@H](C)NC1=O [Compound 219] | GI50 ([20]; BGC-823 cells): 50 nM
no activity | – | 21 | – | – | – | 52 | 26 | 36 | – | – | 69 | 39 | 36 | – | – | – | 45 | 48 | 41 | C/C=C1\NC(=O)c2cc(F)cc(n2)CNC(=O)C[C@@H](/C=C/CCSC(C)=O)OC(=O)[C@@H](C)NC1=O [Compound 101] | GI50 [2]: 70 nM; GI50 [4]: 50 nM; GI50 [5]: 30 nM; GI50 [6]: 20 nM; GI50 [10]: 40 nM; GI50 [11]: 20 nM; GI50 [15]: 20 nM; GI50 [16]: 40 nM; GI50 [17]: 40 nM; GI50 [20]: 30 nM
